Test results reported in patent US20230331694A1, “FAP-ACTIVATED COMPOUNDS FOR TREATMENT OF CANCER” (The Johns Hopkins University, priority 2020, published 2023).
Each block holds one compound with its values, some of them ahead of it.

Tests used:
FAP [1] = molecular target: T1, FAP (Homo sapiens, UniProt Q12884); experiment: FAP-dependent activation of Compound 4 in vitro (HPLC); format: biochemical; parameters: purchased R&D Systems; details: buffer +/- rhFAP (20 nM) overnight (~16 hrs), 37° C., HPLC (FIG. 10)
T1 sequence (Q12884 1-760): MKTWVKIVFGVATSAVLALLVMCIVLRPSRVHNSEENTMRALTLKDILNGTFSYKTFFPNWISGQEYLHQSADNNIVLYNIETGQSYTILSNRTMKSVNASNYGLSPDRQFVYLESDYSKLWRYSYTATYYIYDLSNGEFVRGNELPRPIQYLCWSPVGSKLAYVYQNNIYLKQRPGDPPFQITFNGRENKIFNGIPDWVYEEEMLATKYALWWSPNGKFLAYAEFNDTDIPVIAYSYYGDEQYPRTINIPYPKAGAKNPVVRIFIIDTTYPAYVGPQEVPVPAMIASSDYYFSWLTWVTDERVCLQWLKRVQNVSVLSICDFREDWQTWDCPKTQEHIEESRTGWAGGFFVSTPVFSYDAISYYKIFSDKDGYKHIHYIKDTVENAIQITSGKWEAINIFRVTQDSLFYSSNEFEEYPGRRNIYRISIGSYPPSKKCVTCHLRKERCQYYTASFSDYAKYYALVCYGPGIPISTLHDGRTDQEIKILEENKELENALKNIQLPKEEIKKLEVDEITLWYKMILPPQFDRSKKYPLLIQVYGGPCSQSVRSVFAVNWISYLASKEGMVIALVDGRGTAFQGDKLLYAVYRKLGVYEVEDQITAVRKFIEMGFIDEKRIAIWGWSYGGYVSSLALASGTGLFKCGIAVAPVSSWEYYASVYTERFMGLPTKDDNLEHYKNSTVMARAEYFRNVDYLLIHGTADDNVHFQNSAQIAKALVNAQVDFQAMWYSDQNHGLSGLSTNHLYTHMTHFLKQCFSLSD
Procedure: Compound 4 was incubated in buffer +/- rhFAP (20 nM) overnight (~16 hrs), mixing at 37° C. Aliquots taken at indicated time points and the presence of Compound 4 (prodrug) and Tasquinimod (TasQ) were quantified via HPLC.

[2] = tested on: SkCaP-1 (human PCa xenograft); experiment: SkCaP-1 human PCa xenograft in NSG mice; format: in vivo; details: 30 mg/kg i.p. daily vs DMSO control (FIG. 4)
Procedure: Intact male NSG mice (3-4 per group) bearing SkCaP-1 (human PCa xenograft) were treated with 30 mg/kg Compound 4 (a tasquinimod compound) i.p. daily, or a control (DMSO).

[3] = tested on: mammalian cells such as mCRPCs, TAMs, MSCs, and CAFs; details: all cells, including mammalian cells; read-out: LC50 (the source's name); cited from earlier work
[4] = in vivo, 40 mg/kg
Procedure: (§2) Column: Luna 2.5u C18, 100 mm ×2.5 mm (Phenomenex 00D-4446-B0). Mobile phase: A = 0.5% acetonitrile/H2O/0.1% formic acid; B= 95% acetonitrile/H2O/0.1% formic acid; Flow = 150 µL/min.

[5] = tested on: panel of benign and malignant cells; experiment: MTT assay, potency of niclosamide against a panel of cells; format: cell-based; details: all cells tested (FIG. 3A)
From the text: FIGS. 3A-3D show characterization data for a compound disclosed herein (Compound 1).

[6] = Pharmacokinetics: plasma, liver, kidney, smooth muscle levels after Compound 1 dosing
Procedure: as §2

FAP [7] = molecular target: T1, FAP; experiment: LC-MS assay of FAP-dependent production of niclosamide from prodrug; format: biochemical; parameters: purchased R&D Systems
Procedure: (§1) In vitro Characterization of Enzymatic Activation Kinetics and FAP-specific Cellular UptakelCytotoxicity: Kinetics of compound activation by FAP is performed as previously described (Aggarwal et al. Biochemistry 47, 1076-1086 (2008); Denmeade et al. Sci TranslMed 4, 140ra186 (2012)). Briefly, increasing concentrations of the test compound (0-10 µM) are incubated with rhFAP, rhDPPIV, or rhPREP [20 nM] (R&D Systems) at 37° C. while shaking. Aliquots are taken to determine concentrations of the test compound and active drug compound at time points ranging from 0-24 hrs using the LCMS method described above in Example 4. Kinetic constants (Km and kcat) are calculated on the basis of the rate of hydrolysis (v) during the linear phase using Michaelis-Menten plots (v vs [S]) with nonlinear regression analysis. Cellular uptake in the presence or absence of rhFAP is determined in cell lysates using the same methodology. Cytotoxicity is determined via MTT in the presence or absence of rhFAP and/or a FAP-specific inhibitor (Jansen et al. J Med Chem 57, 3053-3074 (2014).

PREP = molecular target: T2, PREP (Homo sapiens, UniProt P48147); experiment: LC-MS assay of niclosamide production from prodrug with PREP; format: biochemical; details: 24 hrs
T2 construct: purchased R&D Systems
T2 sequence (P48147 1-710): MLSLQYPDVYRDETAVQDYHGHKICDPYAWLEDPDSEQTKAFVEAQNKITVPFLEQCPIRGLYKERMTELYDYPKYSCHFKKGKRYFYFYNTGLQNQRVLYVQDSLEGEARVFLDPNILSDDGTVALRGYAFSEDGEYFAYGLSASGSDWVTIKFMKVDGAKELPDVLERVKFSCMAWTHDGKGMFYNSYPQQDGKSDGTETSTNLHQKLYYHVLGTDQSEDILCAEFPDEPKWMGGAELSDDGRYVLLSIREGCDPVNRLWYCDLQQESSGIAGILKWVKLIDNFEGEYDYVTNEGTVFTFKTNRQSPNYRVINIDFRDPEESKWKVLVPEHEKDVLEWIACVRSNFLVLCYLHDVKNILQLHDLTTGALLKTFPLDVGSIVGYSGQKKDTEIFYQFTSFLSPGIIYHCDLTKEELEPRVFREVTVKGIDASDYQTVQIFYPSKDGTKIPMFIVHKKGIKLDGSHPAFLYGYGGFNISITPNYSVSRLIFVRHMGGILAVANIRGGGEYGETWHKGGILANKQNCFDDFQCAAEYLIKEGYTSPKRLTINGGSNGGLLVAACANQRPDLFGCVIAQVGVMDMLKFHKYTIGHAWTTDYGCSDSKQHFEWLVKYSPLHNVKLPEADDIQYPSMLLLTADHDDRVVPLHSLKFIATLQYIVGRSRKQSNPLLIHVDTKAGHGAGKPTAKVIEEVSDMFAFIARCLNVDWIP
Procedure: as §1

FAP [8] = molecular target: T1, FAP; experiment: Kinetics of FAP-dependent activation in vitro +/- BSA (HPLC); format: biochemical
Procedure: Compound 1 was incubated in Buffer (50 mM Tris-HCl, pH 7.4; 150 mM NaCI) +/-0.4% BSA in glass vials, mixing at 37° C. Aliquots were taken at indicated time points and the presence of Compound 1 (prodrug) and Niclosamide (active compound) were quantified via HPLC.

Myc-CaP-CR tumors = experiment: Abiraterone-resistant CRPC tumor model (Myc-CaP-CR) in vivo
Procedure: Animals were treated with either abiraterone at 10 mg/kg by daily oral gavage alone or together with Compound 1 at 50 mg/kg IV on d0 and d4. Toxicity was monitored by measuring body weight and body score (i.e., appearance, lethargy, etc.).

LNCaP cells = experiment: Seahorse XF Cell Mito Stress Test; format: cell-based
Procedure: A mitochondrial stress test assay was performed using the Agilent Seahorse XF Cell Mito Stress Test Kit (catalog no. 103015-100), a widely-used assay for assessing mitochondrial function. Compound 1 or niclosamide (1 µM) was incubated overnight at 37° C. shaking, with or without FAP (20 nM) in Seahorse Media. This mixture was added to LNCaP cells (60 k cells) the next day, immediately prior to starting the assay (0.5 µM final concentration).

DPPIV = molecular target: T3, DPPIV (Homo sapiens, UniProt P27487); experiment: LC-MS assay of niclosamide production from prodrug with DPPIV; format: biochemical; details: 24 hrs
T3 construct: purchased R&D Systems
Procedure: as §1

CWR22-H tumors = experiment: Castration-resistant CWR22-H tumors in castrated male NSG mice; format: in vivo
Procedure: Castrated male NSG mice were inoculated with castration-resistant CWR22-H tumors in 50% Matrigel. When tumors reached ~0.2 cc, treatment with Compound 1 (40 mg/kg) via intraperitoneal (I.P.) injection was initiated. Tumor volumes and body weights were monitored 2x/wk. […] Treatment was well-tolerated as documented by weight loss of <20%.

T3 sequence (P27487 whole entry): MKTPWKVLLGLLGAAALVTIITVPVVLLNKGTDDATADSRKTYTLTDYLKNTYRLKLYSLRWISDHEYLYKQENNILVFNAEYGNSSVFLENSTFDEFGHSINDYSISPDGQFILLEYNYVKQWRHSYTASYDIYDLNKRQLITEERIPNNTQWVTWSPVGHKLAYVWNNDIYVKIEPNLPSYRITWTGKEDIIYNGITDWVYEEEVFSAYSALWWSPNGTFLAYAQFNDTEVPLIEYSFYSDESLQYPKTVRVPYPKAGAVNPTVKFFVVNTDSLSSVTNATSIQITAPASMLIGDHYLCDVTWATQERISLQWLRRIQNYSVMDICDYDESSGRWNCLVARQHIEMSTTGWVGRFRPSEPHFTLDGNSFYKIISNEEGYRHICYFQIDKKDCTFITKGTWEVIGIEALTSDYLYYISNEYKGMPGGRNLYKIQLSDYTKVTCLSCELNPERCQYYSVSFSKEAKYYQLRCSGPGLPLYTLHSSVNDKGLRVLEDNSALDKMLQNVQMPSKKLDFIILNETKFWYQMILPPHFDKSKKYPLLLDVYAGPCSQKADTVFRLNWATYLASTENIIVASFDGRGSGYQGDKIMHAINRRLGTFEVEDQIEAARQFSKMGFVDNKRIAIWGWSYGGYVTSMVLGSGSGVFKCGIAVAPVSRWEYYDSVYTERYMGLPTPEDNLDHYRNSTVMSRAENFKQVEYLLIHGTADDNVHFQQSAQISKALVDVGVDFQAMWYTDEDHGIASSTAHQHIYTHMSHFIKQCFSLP

FAP-dependent activation to tasquinimod (FAP [1]): confirm FAP-dependent activation
SMILES: COc1cccc2c1c(OCc1ccc(NC(=O)C3CC(F)(F)CN3C(=O)CNC(=O)c3ccnc4ccccc34)cc1)c(C(=O)N(C)c1ccc(C(F)(F)F)cc1)c(=O)n2C (stereo not drawn) [Compound 4]
tumor growth (tumor volume) [2]: decreases tumor growth compared to the control

SMILES: O=C(Nc1ccc([N+](=O)[O-])cc1Cl)c1cc(Cl)ccc1O [Niclosamide, niclosamide]
CC50 [3]: < 1000 nM
niclosamide in liver as % of Compound 1 concentrations [4]: 25-50%
niclosamide in plasma as % of Compound 1 dose [4]: < 10%
niclosamide in smooth muscle as % based on liver concentrations [4]: < 1%
niclosamide in smooth muscle as % of administered dose based on plasma concentrations [4]: 5-10%
niclosamide level in plasma [4]: < 1 µM
niclosamide level in smooth muscle [4]: < 1 µM
IC50 [5]: < 500 nM

plasma level as % of the IV dose ([6]; 40 mg/kg IP): ~ 50%
kidney level as % of the IV dose ([6]; 40 mg/kg IP, at ~4 hrs): ~ 30%
liver level as % of the IV dose ([6]; 40 mg/kg IP, at ~4 hrs): ~ 50%
converted to niclosamide (kidney) ([6]; Compound 1 administered IV or IP): < 10%
stability of the prodrug as a systemic therapy ([6]; in vivo, from tissue niclosamide levels): good stability
concentration at 1 hr ([6]; kidney, intravenous, 40 mg/kg): ~50 µM
concentration at 1 hr ([6]; kidney, oral, 40 mg/kg): ~1 µM
Kp at 1 hr ([6]; liver, intravenous, 40 mg/kg): 10 to 15
concentration at 1 hr ([6]; liver, intravenous, 40 mg/kg): ~100 µM
concentration at 1 hr ([6]; liver, oral, 40 mg/kg): ~10 µM
bioavailability ([6]; liver, po, 40 mg/kg): ~10%
half-life ([6]; plasma, intravenous, 40 mg/kg): 3 to 4 h
Cmax ([6]; plasma, iv, 40 mg/kg): ~7 µM
Cmax ([6]; plasma, po, 40 mg/kg): ~0.4 µM
bioavailability ([6]; plasma, po, 40 mg/kg): 5 to 10%
production of active niclosamide (FAP [7]; absence of enzyme, 24 hrs): no production observed
increase in active niclosamide (FAP [7]; with FAP, over 24 hrs (FIG. 3B)): ~ 20 fold
production of active niclosamide (PREP): no production observed
production of active niclosamide (DPPIV): no production observed
weight loss (CWR22-H tumors; 40 mg/kg daily IP): < 20%
SMILES: O=C(Nc1ccc([N+](=O)[O-])cc1Cl)c1cc(Cl)ccc1OCc1ccc(NC(=O)C2CC(F)(F)CN2C(=O)CNC(=O)c2ccnc3ccccc23)cc1 (stereo not drawn) [Compound 1]
effect of BSA on production of the active compound (FAP [8]; 0.4% BSA): BSA inhibits production of the active compound
prodrug and active compound over time (FAP [8]; buffer pH 7.4, 37° C., HPLC (FIG. 5)): time-dependent increase in the active compound and concomitant decrease in the prodrug over time
toxicity (body weight and body score) (Myc-CaP-CR tumors; Compound 1 50 mg/kg IV d0 and d4 together with abiraterone 10 mg/kg (FIG. 3D)): no evidence of toxicity
anti-tumor efficacy (Myc-CaP-CR tumors; Compound 1 50 mg/kg IV d0 and d4 together with abiraterone 10 mg/kg daily oral gavage (FIG. 3C)): significant anti-tumor efficacy
baseline ECAR (LNCaP cells; activated by FAP): already at maximum
oxygen consumption rate (OCR), mitochondrial uncoupling (LNCaP cells; activated by FAP (20 nM) overnight, 0.5 µM final (FIG. 6)): uncouples mitochondria
extracellular acidification rate (ECAR) on oligomycin addition (LNCaP cells; activated by FAP (FIG. 7)): does not change with the addition of oligomycin
non-mitochondrial respiration (LNCaP cells; activated by FAP, after rotenone and antimycin A): no change in non-mitochondrial respiration
anti-tumor activity (tumor volume) (CWR22-H tumors; 40 mg/kg daily IP (FIG. 8)): Anti-tumor activity was observed
